Legend:
Assay type in all cases: biochemical
[1] = target: T1, JAK1 (Homo sapiens, UniProt P23458); experiment: JAK1 inhibition (Table 4); details: read-out: JAK1 Ki
T1 construct: made in house; host or cells: SF9 insect cells (baculovirus)

[2] = target: T2, JAK2 (Homo sapiens, UniProt O60674); experiment: JAK2 inhibition (Table 4); details: read-out: JAK2 Ki
T2 construct: made in house; host or cells: SF9 insect cells (baculovirus)

[3] = target: T3, JAK3 (Homo sapiens, UniProt P52333); experiment: JAK3 inhibition (Table 4); details: read-out: JAK3 Ki
T3 construct: made in house; host or cells: SF9 insect cells (baculovirus)
T3 sequence (P52333 783-1124): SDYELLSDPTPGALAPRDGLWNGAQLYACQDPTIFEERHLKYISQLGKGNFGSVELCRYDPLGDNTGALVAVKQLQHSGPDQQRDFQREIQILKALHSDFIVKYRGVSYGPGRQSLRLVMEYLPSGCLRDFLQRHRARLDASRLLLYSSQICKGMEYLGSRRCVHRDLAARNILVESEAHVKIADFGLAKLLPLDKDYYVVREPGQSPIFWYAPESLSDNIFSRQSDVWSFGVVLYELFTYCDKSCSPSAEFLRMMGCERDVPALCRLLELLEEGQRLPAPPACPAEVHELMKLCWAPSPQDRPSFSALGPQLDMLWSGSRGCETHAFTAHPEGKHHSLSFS

[4] = target: T4, TYK2 (Homo sapiens, UniProt P29597); experiment: TYK2 inhibition (Table 4)
T4 construct: made in house; host or cells: SF9 insect cells (baculovirus)
T4 sequence (P29597 873-1187): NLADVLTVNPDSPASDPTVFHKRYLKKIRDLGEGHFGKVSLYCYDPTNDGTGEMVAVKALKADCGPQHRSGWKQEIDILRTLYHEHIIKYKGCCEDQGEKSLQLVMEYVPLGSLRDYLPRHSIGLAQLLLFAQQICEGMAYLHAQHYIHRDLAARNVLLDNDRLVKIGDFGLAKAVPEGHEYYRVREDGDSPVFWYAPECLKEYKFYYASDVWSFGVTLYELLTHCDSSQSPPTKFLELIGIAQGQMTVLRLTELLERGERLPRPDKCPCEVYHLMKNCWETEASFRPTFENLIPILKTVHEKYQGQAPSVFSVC

T1 sequence (P23458 852-1154): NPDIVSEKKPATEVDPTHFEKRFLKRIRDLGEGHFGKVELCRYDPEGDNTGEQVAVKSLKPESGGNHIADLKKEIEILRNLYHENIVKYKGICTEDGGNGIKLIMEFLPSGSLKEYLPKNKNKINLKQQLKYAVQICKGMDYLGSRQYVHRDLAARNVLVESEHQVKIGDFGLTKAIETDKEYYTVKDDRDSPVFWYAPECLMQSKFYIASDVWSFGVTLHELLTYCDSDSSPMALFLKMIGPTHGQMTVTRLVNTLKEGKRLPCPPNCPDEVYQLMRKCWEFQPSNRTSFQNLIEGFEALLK
T2 sequence (O60674 812-1132): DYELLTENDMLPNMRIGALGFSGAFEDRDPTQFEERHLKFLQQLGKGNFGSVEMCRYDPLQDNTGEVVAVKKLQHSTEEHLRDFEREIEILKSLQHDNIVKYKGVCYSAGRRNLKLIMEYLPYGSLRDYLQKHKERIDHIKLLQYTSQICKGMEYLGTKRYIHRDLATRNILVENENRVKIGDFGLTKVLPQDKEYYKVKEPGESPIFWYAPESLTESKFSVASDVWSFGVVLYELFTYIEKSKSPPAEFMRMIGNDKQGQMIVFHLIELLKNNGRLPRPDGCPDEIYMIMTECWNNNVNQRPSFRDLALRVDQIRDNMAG

| Structure (SMILES) | Ki [1] | Ki [2] | Ki [3] | Ki [4] |
| --- | --- | --- | --- | --- |
| Cc1nc2cnc3[nH]ccc3c2n1C1CCCCNC1 (racemic) [Example 987, 1-Azepan-3-yl-2-methyl-1,6-dihydro-1,3,5,6-tetraaza-as-indacene] | 39.7 nM | 208 nM | 643 nM | 267 nM |
| NCC(F)(F)c1nc2cnc3[nH]ccc3c2n1C1CCN(Cc2cccnc2)CC1 [Example 588, 2,2-Difluoro-2-[1-(1-pyridin-3-ylmethyl-piperidin-4-yl)-1,6-dihydro-1,2,3,5,6-tetraaza-as-indacen-2-yl]-ethylamine] | 5.81 nM | 13.3 nM | 5.73 nM | 584 nM |
| CN1CCOCC1C(=O)N1CCC(n2cnc3cnc4[nH]ccc4c32)CC1 (single isomer, unassigned) [Example 197, (4-Methyl-morpholin-3-yl)-[4-(6H-1,2,3,5,6-tetraaza-as-indacen-1-yl)-piperidin-1-yl]-methanone] | 32.5 nM | 202 nM | 3240 nM | 667 nM |
| C[C@@H](O)c1nc2cnc3[nH]ccc3c2n1C1CCOCC1 [Example 881, (R)-1-[1-(Tetrahydro-pyran-4-yl)-1,6-dihydro-1,3,5,6-tetraaza-as-indacen-2-yl]-ethanol] | 26.4 nM | 280 nM | 90.6 nM | 59.7 nM |
| C[C@@H](O)c1nc2cnc3[nH]ccc3c2n1[C@H]1CCCO1 [Example 660, (R)-1-[(R)-1-(Tetrahydro-furan-2-yl)-1,6-dihydro-1,2,3,5,6-tetraaza-as-indacen-2-yl]-ethanol] | 327 nM | 1220 nM | 1050 nM | 645 nM |
| Cc1nc2cnc3[nH]ccc3c2n1[C@@H]1C[C@H]2CC[C@@H](C1)N2Cc1ccccc1 [Example 271, 1-(8-Benzyl-8-aza-bicyclo[3.2.1]oct-3-yl)-2-methyl-1,6-dihydro-1,3,5,6-tetraaza-as-indacene] | 17.4 nM | 12.4 nM | 60.4 nM | 302 nM |
| C[C@@H](O)c1nc2cnc3[nH]ccc3c2n1[C@H]1CCNC1 [Example 926, (R)-1-((S)-1-Pyrrolidin-3-yl-1,6-dihydro-1,3,5,6-tetraaza-as-indacen-2-yl)-ethanol] | 35.2 nM | 2470 nM | 1150 nM | 1600 nM |

These reach a lower Ki [1]. Values come first.

| Ki [1] | Ki [2] | Ki [3] | Ki [4] | Structure (SMILES) |
| --- | --- | --- | --- | --- |
| 4.07 nM | 23.2 nM | 22 nM | 30.4 nM | Cc1nc2cnc3[nH]ccc3c2n1[C@H]1CC[C@@H](NCC(F)(F)F)C1 [Example 719, [(1R,3S)-3-(2-Methyl-6H-1,3,5,6-tetraaza-as-indacen-1-yl)-cyclopentyl]-(2,2,2-trifluoro-ethyl)-amine] |
| 4.07 nM | 27 nM | 52 nM | 120 nM | N#CCCN1CCC(n2c(CCNC(=O)c3ccc(F)cc3)nc3cnc4[nH]ccc4c32)CC1 [Example 373, N-(2-{1-[1-(2-Cyano-ethyl)-piperidin-4-yl]-1,6-dihydro-1,3,5,6-tetraaza-as-indacen-2-yl}-ethyl)-4-fluoro-benzamide] |
| 0.66 nM | 1.45 nM | 3 nM | 5.61 nM | N#CCCN1CCC(n2c(CF)nc3cnc4[nH]ccc4c32)CC1 [Example 530, 3-[4-(2-Fluoromethyl-6H-1,3,5,6-tetraaza-as-indacen-1-yl)-piperidin-1-yl]-propionitrile] |
| 5.09 nM | 17.3 nM | 11.6 nM | 673 nM | CC(C)NC(=O)Cc1nc2cnc3[nH]ccc3c2n1C1CCN(Cc2ccccc2)CC1 [Example 103, 2-[1-(1-Benzyl-piperidin-4-yl)-1,6-dihydro-1,3,5,6-tetraaza-as-indacen-2-yl]-N-isopropylacetamide] |
| 5.26 nM | 17.2 nM | 7.87 nM | 120 nM | CC(C)NC(=O)Cc1nc2cnc3[nH]ccc3c2n1C1CCN(CCC#N)CC1 [Example 266, 2-{1-[1-(2-Cyano-ethyl)-piperidin-4-yl]-1,6-dihydro-1,3,5,6-tetraaza-as-indacen-2-yl}-N-isopropyl-acetamide] |

Source: patent US8461328B2, “Tricyclic heterocyclic compounds, compositions and methods of use thereof” (Genentech, Inc., priority 2010, dated 2013)
